# Experimental data from patent US20040038950A1, “Pharmaceutical composition for treating IL-1 related diseases or disorders” (priority 2002, published 2004).
# What was measured:
# [1] = system: (IL-1β)-induced iNOS mRNA; assay: (IL-1β)-induced iNOS gene expression in chondrocytes; format: cell-based, human; conditions: 10, 50, 100 μM with IL-1β, 72 hr
# Description: Sixteen hours prior to a treatment, the complete culture medium was replaced with a serum-free medium. Chondrocyte alginate bead cultures were then treated with IL-1β ([…], (Calbiochem) and DHEA (0, 10, 50 or 100 μM) for 3 days.
# Total RNA from chondrocytes was extracted using RNeasy Mini Kit (QIAGEN). Reverse transcription from 1 μg of total RNA was conducted using First Strand cDNA Synthesis Kit (MBI Fermentas) according to manufacturer's recommendation with random hexamers. The resulting cDNA was then amplified by polymerase chain reaction using AccuPower PCR Premix (Bioneer, Korea) in a final volume of 20 μl using three thermocycler temperatures (30 sec at […], 30 sec at 60° C., and 30 sec at […]). All reactions were determined to be in the linear range of amplification with the cycle number ranging from 14 to 30. The PCR products were analyzed by separation on a 2% agarose gel followed by ethidium bromide staining. Following electrophoresis, photographs were taken and analyzed using a densitometric program (TINA; Raytest Isotopenmeβgerate, Germany). Integrated density values for the genes in question were then normalized to the glyceraldehyde-3-phosphate dehydrogenase (GAPDH) values for a semiquantitative assessment. After normalizing with respect to GAPDH, percentage increase or decrease was determined. Each experiment was repeated at least three times. […]
# [2] = system: type II collagen mRNA; assay: RT-PCR of type II collagen mRNA in chondrocytes; format: cell-based, human; conditions: for type II collagen gene up-regulation, enhancement: 72 hours
# Description: Chondrocytes were isolated from the knee joint of patient undergoing a knee replacement due to osteoarthritis. Cartilage was digested with 0.2% protease Type XIV (Sigma) for 1 hour, followed by 3-hour incubation with 0.2% collagenase Type IA (Sigma) at 37° C. Following the incubation, the undigested cartilage fragments were removed using a 70 μm Nylon sieve. Chondrocytes were washed with DPBS and maintained in monolayer culture for 7 days in Dulbecco's modified Eagle's medium (DMEM; Life Technologies Inc.) which contained 10% fetal bovine serum (FBS; Life Technologies), 100 units/ml penicillin-streptomycin (Life Technologies) and 25 μg/ml L-ascorbic acid (Sigma). All experiments were performed with primary or first passage cells. The preparation of chondrocytes in alginate beads was carried out with 4×10^6 cells per 1 ml of alginate. Alginate cultures were maintained for 7 days at 37° C., 5% CO2 and 95% humidity and incubated with various concentrations of DHEA (0, 10, 50 or 100 μM) for a varing period of time. DHEA was purchased from Sigma and used after dissolving either in ethanol or dimethyl sulfoxide (DMSO). After a desired incubation period, cells were harvested by solubilizing the alginate beads in citrate buffer (55 mM sodium citrate, 0.15 M NaCl, pH 7.0) for 10 min at 37° C. and by centrifugation (300 g, 5 min).
# Total RNA from chondrocytes was extracted using RNeasy Mini Kit (QIAGEN). Reverse transcription from 1 μg of total RNA was conducted using First Strand cDNA Synthesis Kit (MBI Fermentas) according to manufacturer's recommendation with random hexamers. […] All reactions were determined to be in the linear range of amplification with the cycle number ranging from 14 to 30. The PCR products were analyzed by separation on a 2% agarose gel followed by ethidium bromide staining. Following electrophoresis, photographs were taken and analyzed using a densitometric program (TINA; Raytest Isotopenmeβgerate, Germany). […] After normalizing with respect to GAPDH, percentage increase or decrease was determined. […]
smiles,measurement,setting,value
"C[C@]12CC[C@H](O)CC1=CC[C@@H]1[C@@H]2CC[C@]2(C)C(=O)CC[C@@H]12 [DHEA, dehyroepiandrosterone]",(IL-1β)-induced up-regulation of iNOS mRNA,[1],suppressed
same,"type II collagen gene up-regulation, enhancement",[2]; 50 μM,132%
same,"type II collagen gene up-regulation, enhancement",[2]; 100 μM,146%
same,Emax at 100 µM,"[2]; Homo sapiens, Chondrocyte, 100 μM, after 48 hr, read-out: type II collagen mRNA level, maximal stimulation",276%
